Measured values as given in patent publication US20230330254A1 (Regeneron Pharmaceuticals, Inc., priority 2022, published 2023).

Key:
Format in all cases: cell-based
[1] = biological target: T1, human glucagon-like peptide 2 receptor (GLP2R) (Homo sapiens, UniProt O95838); test: Luciferase reporter assay, HEK293/CRE-Luc/hGLP2R (Example 17); conditions: Table 28; CRE-dependent luciferase reporter activity
T1 construct: full-length human GLP1R, cynomolgus GLP1R, human glucagon receptor (GCGR), human glucagon-like peptide 2 receptor (GLP2R); expressed in transfected cells; host or cells: HEK293/CRE-Luc
T1 sequence (O95838 1-553): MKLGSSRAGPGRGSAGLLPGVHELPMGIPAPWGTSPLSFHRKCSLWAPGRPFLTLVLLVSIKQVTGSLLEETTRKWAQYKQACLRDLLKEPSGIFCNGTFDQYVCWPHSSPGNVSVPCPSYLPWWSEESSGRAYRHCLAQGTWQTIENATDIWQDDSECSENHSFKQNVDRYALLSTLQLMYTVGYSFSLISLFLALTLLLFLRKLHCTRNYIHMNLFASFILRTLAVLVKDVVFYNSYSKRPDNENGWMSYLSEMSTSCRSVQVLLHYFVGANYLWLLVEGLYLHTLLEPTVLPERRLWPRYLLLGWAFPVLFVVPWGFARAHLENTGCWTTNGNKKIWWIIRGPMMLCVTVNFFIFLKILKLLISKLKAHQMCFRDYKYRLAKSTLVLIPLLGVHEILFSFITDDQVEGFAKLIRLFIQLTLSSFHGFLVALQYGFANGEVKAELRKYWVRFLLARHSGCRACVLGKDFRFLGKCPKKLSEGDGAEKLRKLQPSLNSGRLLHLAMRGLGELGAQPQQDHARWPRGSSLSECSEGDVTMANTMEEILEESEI

human GLP1R = human GLP1R (Homo sapiens, UniProt P43220); test: CRE-Luc cAMP reporter assay, HEK293/CRE-Luc/hGLP1R (Example 24); design: engineered to express full-length human GLP1R, cynomolgus GLP1R; expressed in transfected cells; host or cells: HEK293/CRE-Luc
From the text: To test the activity of GLP1R agonist payloads, GLP1R agonist linker-payloads (LPs), and anti-GLP1R antibody-tethered ligands (ATLs) of the invention, a cell-based cAMP responsive luciferase reporter assay was developed. To generate the assay cell line, the firefly luciferase gene was placed under the control of a cAMP response element (CRE) located upstream of a minimal promoter and transfected into HEK293 cells and referred to herein as HEK293/CRE-Luc cells. HEK293/CRE-Luc cells were then engineered to express full-length human GLP1R (HEK293/CRE-Luc/hGLP1R), cynomolgus GLP1R (HEK293/CRE-Luc/mfGLP1R), or mouse GLP1R (HEK293/CRE-Luc/mGLP1R).
Serial dilutions of free payload and linker payloads (LP) were performed in 100% DMSO (ATCC, #4-X-5), followed by 1:100 dilution in assay media. Test articles were added to cells (1:5 dilution) with the last well in each serial dilution series serving as a blank control containing only assay media for antibodies and ATLs or assay media with 0.2% DMSO for payloads and LPs. After a 5-hour incubation at 37° C., luciferase activity was determined by addition of ONE-Glo reagent (Promega, #E6130) followed by measurement of relative light units (RLUs) on an EnVision Plate Reader (Perkin Elmer).
EC50 values for luminescence assays were determined using a four-parameter logistic equation over a 12-point dose response curve (GraphPad Prism).

[2] = biological target: T2, human gastric inhibitory polypeptide receptor (GIPR) (Homo sapiens, UniProt P48546); test: CRE-luciferase reporter assay, HEK293/Myc-hGIPR/Cre-Luc (Example 9); design: Myc; expressed in transfected cells; conditions: Table 5C
T2 sequence (P48546 22-466): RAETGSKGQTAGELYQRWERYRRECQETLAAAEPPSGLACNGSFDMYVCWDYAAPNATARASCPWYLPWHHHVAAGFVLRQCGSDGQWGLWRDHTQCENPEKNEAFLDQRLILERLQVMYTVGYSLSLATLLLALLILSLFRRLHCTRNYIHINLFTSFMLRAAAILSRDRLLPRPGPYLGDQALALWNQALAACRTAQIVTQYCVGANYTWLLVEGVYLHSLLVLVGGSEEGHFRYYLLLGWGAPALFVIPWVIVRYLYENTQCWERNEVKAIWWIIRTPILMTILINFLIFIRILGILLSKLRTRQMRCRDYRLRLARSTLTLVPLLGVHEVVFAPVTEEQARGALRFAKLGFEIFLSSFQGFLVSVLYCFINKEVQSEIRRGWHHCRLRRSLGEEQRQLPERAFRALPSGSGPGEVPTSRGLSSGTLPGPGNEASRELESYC
Description: To test the activity of GLP1R agonist payloads and GLP1R agonist linker-payloads (LPs) in vitro, a cell-based cAMP responsive luciferase reporter assay was developed.
Cells were incubated overnight at 37° C. in 5% CO2. […] Plates were incubated for 5.5 h at 37° C. in 5% CO2. For end-point measurement, 100 μL/well of One-Glo reagent (Promega, #E6051) was added and plates were kept at room temperature for 5-10 minutes. Luciferase activity was measured on Envision Multilabel Plate Reader (Perkin Elmer) in Luminescent mode. The relative light units (RLU) values were obtained and the results were analyzed using nonlinear regression with GraphPad Prism software (GraphPad).

Chain of human GLP1R (P43220 24-463): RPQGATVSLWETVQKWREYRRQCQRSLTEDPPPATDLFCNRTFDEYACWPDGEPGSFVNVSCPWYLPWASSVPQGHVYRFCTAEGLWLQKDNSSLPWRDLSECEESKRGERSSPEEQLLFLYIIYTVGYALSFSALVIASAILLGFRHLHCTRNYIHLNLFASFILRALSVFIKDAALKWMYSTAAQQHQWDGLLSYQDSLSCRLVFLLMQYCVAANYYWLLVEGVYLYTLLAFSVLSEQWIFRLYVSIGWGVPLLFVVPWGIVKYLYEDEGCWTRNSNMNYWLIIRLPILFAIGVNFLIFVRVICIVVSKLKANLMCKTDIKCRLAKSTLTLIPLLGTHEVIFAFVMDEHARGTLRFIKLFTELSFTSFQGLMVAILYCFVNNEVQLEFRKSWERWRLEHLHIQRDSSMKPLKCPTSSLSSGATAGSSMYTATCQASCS

Structure (SMILES) | EC50 [1] [nM] | Emax (human GLP1R; HEK293, read-out: HEK293/CRE-Luc/hGLP1R Emax (% GLP-1)) [%] | EC50 (human GLP1R; Table 40, CRE-dependent reporter activity, no unit printed in table (text b1912 reads values as M)) [nM] | GIPR EC50 (nM) [2]
CCc1cc(OCCCCn2cc(COCCOCCOCCOCCOCCOCCOCCOCCN)nn2)ccc1-c1ccc(C[C@H](NC(=O)[C@H](CC(=O)O)NC(=O)[C@H](CO)NC(=O)[C@@H](NC(=O)[C@](C)(Cc2ccccc2F)NC(=O)[C@@H](NC(=O)CNC(=O)[C@H](Cc2nn[nH]n2)NC(=O)C(C)(C)C(=O)NCCc2cnc[nH]2)[C@@H](C)O)[C@@H](C)O)C(=O)N[C@@H](CCCc2cc(C)cc(C)c2)C(N)=O)cc1 [M3190] | > 200 | 93.9 | 0.0168 | –
CCc1cc(OCCCCn2cc(COCCOCCOCCOCCOCCOCCOCCOCCN)nn2)ccc1-c1ccc(C[C@H](NC(=O)[C@H](CC(=O)O)NC(=O)[C@H](CO)NC(=O)[C@@H](NC(=O)C(C)(Cc2ccccc2F)NC(=O)[C@@H](NC(=O)CNC(=O)[C@H](Cc2nn[nH]n2)NC(=O)C(C)(C)C(=O)NCCc2cnc[nH]2)[C@@H](C)O)[C@@H](C)O)C(=O)N[C@@H](CCCc2cc(C)cc(C)c2)C(N)=O)cc1 (stereo partly shown) [LP11, NH2-PEG8-triazole-P8] | – | – | – | Completely inactive
